Reference: paper PMC9284491 (Nature Communications, 2022)

Assays:
[1] = Dose-limiting toxicities, MTD and RP2D in dose escalation; type: in vivo
Description: During dose escalation, treatment was initiated on day 1 in the fasting state in cohorts starting at a dose of 20 mg orally QD, escalating in subsequent cohorts to planned doses of 50–600 mg. For all cohorts, treatment was omitted on day 2, was administered on day 3 after a moderate fat breakfast, and was administered from day 4 in the fasting state. Dose escalation proceeded based on the occurrence of DLT together with target saturation by ^18F-FES PET/CT scans[45] and pharmacokinetic parameters during the first 28-day cycle, and according to a 3 + 3 design. […] During dose expansion, patients were treated at the RP2D. Patients were treated until disease progression, unacceptable toxicity, withdrawal of patient consent, or other reasons determined by the investigator (poor compliance with the protocol or intercurrent illness). […]
Analysis populations and associated statistical methods. […] Results were analyzed using descriptive statistics. […]

[2] = tested on: ER activity signature (87 genes); experiment: ER activation score by GSVA of RNA-seq from paired tumor biopsies; type: in vivo, human
Source text: Total RNA was extracted from FFPE tissue (slides of 10 μm). A targeted-enrichment RNA-seq approach was applied utilizing KAPA RNA HyperPrep and whole exome […] kits (Roche) followed by the generation of sequencing reads with NextSeq 500 (Illumina). RNA-seq FASTQ files were processed with STAR aligner and Cufflinks to generate gene-level fragments per kilobase of transcript per million mapped reads (FPKM)[34],[47],[48]. Those FPKM values were converted to the gene-level estimation of expression in transcripts per million (TPM). The TPM data were then quantile-normalized and log2-transformed. GSVA was employed to calculate the ER activation score by using the ER activity signature (87 genes)[31]. […] Results were analyzed using descriptive statistics.

ER = tested on: ER; parameters: method as in PMID 31721572; conditions: in vitro, preclinical, cited from earlier work
[3] = parameters: method as in PMID 31721572; conditions: preclinical; cited from earlier work
CYP3A = experiment: 4β-hydroxycholesterol ratio, induction/inhibition effect on CYP3A; type: in vivo, human; conditions: ≥200 mg QD
Ki67 = experiment: Paired tumor biopsy IHC, Ki67 positive cells; type: in vivo, human; conditions: cycle 2, day 28; n = 7; range −30 to +30%
Description: Staining was evaluated in tumor cells only.
Results were analyzed using descriptive statistics.

Structure (SMILES): O=C(O)c1ccc2c(c1)CCCC(c1ccc(Cl)cc1Cl)=C2c1ccc(O[C@H]2CCN(CCCF)C2)cc1 [amcenestrant, 6-(2,4-Dichlorophenyl)−5-[4-[(3S)−1-(3-fluoropropyl)pyrrolidin-3-yl]oxyphenyl]−8,9-dihydro-7H-benzo[7]annulene-2-carboxylic acid]
- maximum tolerated dose (MTD) ([1]; Part A, 20-600 mg QD): not reached
- dose-limiting toxicities ([1]; in vivo): No dose-limiting toxicities occurred
- ER activation score by GSVA, median change from screening ([2]; cycle 2, day 28, n = 5, range −1.1 to +0.4): −0.4
- ER activation score, median change from screening ([2]; patients who showed clinical benefit, n = 4, range −1.1 to 0): −0.6
- ER activation score, change from screening ([2]; the patient with no clinical benefit): +0.4
- ER degradation efficacy (ER): 98%
- EC50 (ER; read-out: ER degradation potency): 0.2 nM
- metabolic stability [3]: metabolically stable
- effect on CYP3A liver enzyme activity (CYP3A): can induce cytochrome P450 (CYP) 3 A liver enzyme activity
- median change from screening in percentage of Ki67 positive cells (Ki67): −8%
